Patent US9738591B2, “Antimicrobial compounds” (priority 2009, dated 2017)
≈ marks a conversion by molar mass, not a printed value. Where “and” joins values, the source holds several entries; their conditions need not be identical. Identical values can stand only once. Like-named read-outs stand apart in the source and are kept apart here.

Experiments:
[1] = system: Streptococcus pyogenes NCTC 8191; assay: Disk diffusion; settings: 10 mg/ml, 20 μl
[2] = system: Bacillus subtilis ATCC 6633; assay: Disk diffusion; settings: 10 mg/ml, 20 μl
[3] = system: S. typhimurium TA98, TA100 and TA1535; assay: Ames Test for mutagenic activity, no metabolic activation; settings: for Number of colonies: duplicate plates
[4] = system: Proteus mirabilis NCTC 10975; assay: Disk diffusion; settings: 10 mg/ml, 20 μl; repeat; value printed with '?'
S. aureus NCTC 6571 = assay: Time-kill experiments; format: cell-based; settings: for effect on viability over the 4 h of the experiment: MHB, 37° C.; for effect on viability over the 4 h of the experiment / viable counts at 24 h: initial 0.5-1.0×10^7 CFU/ml
Method: An overnight 10 ml MHB culture of S. aureus NCTC 6571 was diluted to 0.5 McFarland in MHB then 1 ml was used to inoculate each of four 100 ml flasks prepared as follows: • 1) 9.0 ml MHB (control) • 2) 9.99 ml MHB plus 9.7 μl of TSB007 working stock at 2048 μg/ml (1.8 μg/ml) • 3) 9.98 ml MHB plus 19.5 μl of TSB007 working stock at 2048 μg/ml (3.6 μg/ml) • 4) […] MHB plus 256 μl of a TSB007 master stock (320 μg/ml).
The flasks were incubated at 37° C. for 10 min before inoculation. Samples (0.1 ml) were taken immediately after inoculation (time 0) and then at 15, 30, 60, 120 and 240 min. The samples were immediately diluted 10^−1 in 0.01 M phosphate buffered saline at pH 7.0 (PBS). Further 10-fold dilutions in PBS were made down to 10^−4 until the 60 min time point, and then down to 10^−6 for the remaining time points. Viable counts were estimated using 3×20 μl drops from each dilution on MHA which was then incubated at 37° C. overnight before counting. These were normalised against the initial counts from each flask. Testing was performed on three separated occasions.

L929 cells = assay: Cytotoxicity, neutral red assay; format: cell-based; settings: for ratio of the well's OD compared to the OD of the negative control, Average (SD) (n = 2): 24 h, ratios ≦0.5 indicate a cytostatic effect
Method: L929 cells grown to approximately 80% confluency in HGM-M were washed with Hanks, trypsonised to detach the cells from the flask, then diluted to 10^5 cells/ml in HGM-M and 200 μl used to inoculate the wells of a 96-well microtitre tray. After incubation for 24 h at 37° C., adherent cells were washed with Hanks and then 100 μl HGM-M was added to the wells. Fresh TSB007 master stock solution (10 mg/ml) was serially 10-fold diluted in HGM-M to make solutions of 1000, 100, 10 and 1 μg/ml of TSB007. To the wells of the microtitre tray, 100 μl of these TSB007 solutions were also added, giving final concentrations of 500, 50, 5 and 0.5 μg/ml of TSB007. The same dilutions of DMSO were prepared and tested to check that cytotoxic activity was not due to the DMSO. A negative control was prepared containing only HGM-M, and a positive control was prepared by adding 100 μl of carboplatin (10 mg/ml; Mayne Pharma Pty Ltd, Australia) to wells containing 100 μl HGM-M. Controls and dilutions of TSB007 and DMSO were prepared in duplicate.
After 24 h shaking at 37° C., cytotoxicity was quantified using the neutral red assay. The cells were washed with Hanks then 200 μl HGM-M and 20 μl Neutral Red (3.3 g/L; Sigma-Aldrich) were added to each well. After 2 h shaking at 37° C., cells were washed twice with PBS then 200 μl of 1% acetic acid in 50% EtOH was added to each well to solubilise the stain. After 15 min shaking at 37° C. the OD690 nm of the wells was measured and subtracted from the OD540 nm. Results were then blanked against wells to which no cells had been added, and converted to a ratio of the OD of the negative control. Ratios […] indicated a cytostatic effect. Testing was performed on two separate occasions.

[5] = system: Staphylococcus aureus (methicillin resistant) NCTC 10442; assay: Disk diffusion; settings: for zone of inhibition at 10000 µg/mL: Staphylococcus aureus
[6] = system: Citrobacter freundii NCTC 9750/ATCC 8090; assay: Disk diffusion; settings: 10 mg/ml, 20 μl; repeat
[7] = system: S. epidermidis ATCC 12228; assay: MIC and MBC by broth microdilution; format: cell-based; settings: Staphylococcus epidermidis, ATCC12228, CA-MHB, two independent replicates
[8] = system: Staphylococcus epidermidis ATCC 12228; assay: Disk diffusion; settings: for zone of inhibition at 10000 µg/mL: Staphylococcus epidermidis

## O=C(O)c1ccc(/C=C/c2cc(/C=C/c3ccc(C(=O)O)cc3)cc(/C=C/c3ccc(C(=O)O)cc3)c2)cc1 [TSB007]
[1]; 24 h, Mueller Hinton + Blood & Incubated in 5% CO2
  Zone diameters, 24 h TSB007: 14 trim
[1]; 48 h, Mueller Hinton + Blood & Incubated in 5% CO2
  Zone diameters, 48 h TSB007: 14 trim
[1]; repeat
  Zone diameters, Repeat Results: 17 trim
[2]; 24 h
  Zone diameters, 24 h TSB007: 8 trim
[2]; 48 h
  Zone diameters, 48 h TSB007: 8 trim
[3]; 100, 300 and 1000 μg/plate, TA98, TA100, TA1535, no metabolic activation
  Ames Test result: negative
[3]; TA98, 100 μg/plate, negative control 14, 12
  Number of colonies: 16 and 13
[3]; TA98, 300 μg/plate, negative control 14, 12
  Number of colonies: 11
[3]; TA98, 1000 μg/plate, negative control 14, 12
  Number of colonies: 3 and 2
[3]; TA100, 100 μg/plate, negative control 113, 96
  Number of colonies: 111 and 92
[3]; TA100, 300 μg/plate, negative control 113, 96
  Number of colonies: 110 and 105
[3]; TA100, 1000 μg/plate, negative control 113, 96
  Number of colonies: 88 and 89
[3]; TA1535, 100 μg/plate, negative control 28, 29
  Number of colonies: 17 and 29
[3]; TA1535, 300 μg/plate, negative control 28, 29
  Number of colonies: 16 and 24
[3]; TA1535, 1000 μg/plate, negative control 28, 29
  Number of colonies: 0
[4]
  Zone diameters, Repeat Results: 9? trim
S. aureus NCTC 6571; 1.8 μg/ml
  effect on viability over the 4 h of the experiment: inhibitory
  viable counts at 24 h: 10^8 CFU/ml
S. aureus NCTC 6571; 3.6 μg/ml
  effect on viability over the 4 h of the experiment: inhibitory
  viable counts at 24 h: 10^3-10^6 CFU/ml
S. aureus NCTC 6571; 320 μg/ml (1.25×MBC), 15 min
  viable cells at first time point: below the limit of detection
S. aureus NCTC 6571; 320 μg/ml (1.25×MBC), first time point of 15 min
  kill: > 99.9%
L929 cells; 0.5 μg/ml
  ratio of the well's OD compared to the OD of the negative control, Average (SD) (n = 2): 0.846 (0.285)
L929 cells; 5 μg/ml
  ratio of the well's OD compared to the OD of the negative control, Average (SD) (n = 2): 0.882 (0.021)
L929 cells; 50 μg/ml
  ratio of the well's OD compared to the OD of the negative control, Average (SD) (n = 2): 0.867 (0.030)
L929 cells; 500 μg/ml
  cytostatic effect on L929 cells: cytostatic
  ratio of the well's OD compared to the OD of the negative control, Average (SD) (n = 2): 0.384 (0.009)
L929 cells; 0.5-50 μg/ml
  cytostatic effect on L929 cells: not significantly cytostatic
[5]; 10 mg/ml, 20 μl, 24 h
  Zone diameters, 24 h TSB007: 18 trim
[5]; 10 mg/ml, 20 μl, 48 h
  Zone diameters, 48 h TSB007: 9 trim
[5]; 10 mg/ml, 20 μl, repeat
  Zone diameters, Repeat Results: 23 trim
[5]; NCTC10442, 24 h, read-out: Zone diameters, 24 h AnO2
  zone of inhibition at 10000 µg/mL: 17 mm
[5]; NCTC10442, 24 h, read-out: Zone diameters, 24 h O2
  zone of inhibition at 10000 µg/mL: 14 mm
[5]; NCTC10442, 48 h, read-out: Zone diameters, 48 h AnO2
  zone of inhibition at 10000 µg/mL: 17 mm
[5]; NCTC10442, 48 h, read-out: Zone diameters, 48 h O2
  zone of inhibition at 10000 µg/mL: 11 mm
[6]
  Zone diameters, Repeat Results: 9 trim
[7]; 35° C., 24 h
  MIC: 2 to 4 µg/mL (≈ 3.87 to 7.74 µM)
[7]
  MBC: > 32 µg/mL
[8]; 10 mg/ml, 20 μl, 24 h
  Zone diameters, 24 h TSB007: 22 trim
[8]; 10 mg/ml, 20 μl, 48 h
  Zone diameters, 48 h TSB007: 22 trim
[8]; 10 mg/ml, 20 μl, repeat
  Zone diameters, Repeat Results: 20 trim
[8]; ATCC12228, 24 h, read-out: Zone diameters, 24 h AnO2
  zone of inhibition at 10000 µg/mL: 22 mm
[8]; ATCC12228, 24 h, read-out: Zone diameters, 24 h O2
  zone of inhibition at 10000 µg/mL: 18 mm
[8]; ATCC12228, 48 h, read-out: Zone diameters, 48 h AnO2
  zone of inhibition at 10000 µg/mL: 22 mm
[8]; ATCC12228, 48 h, read-out: Zone diameters, 48 h O2
  zone of inhibition at 10000 µg/mL: 18 mm
